The text below walks through data of patent publication US8703805B2 (Exelixis Patent Company LLC, priority 2005, dated 2014).

Where only a bound is given, the exact number is not on record here.

This test relates to LXRα and/or LXRβ. Put plainly: LXR/LXRE co-transfection assay (luciferase reporter, CV-1 cells). In kind it is cell-based, human. The conditions noted are these: IC50 or EC50 for LXR (LXRα and/or LXRβ, not distinguished), tested as described in Example 109, CV-1 cells. In short, it runs like this:
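Transient co-transfection of CV-1 cells with full-length human LXRα or LXRβ plus RXRα expression plasmids and an LXREx1-Tk-luciferase reporter; compounds (10 μM screen, ≤1% DMSO) incubated 20 h at 37 °C. Luminescence read after lysis; EC50/IC50 from 8-point half-log curves, efficacy relative to a high control or DMSO.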
Take `CC(C)(O)c1cc(-c2ccc(-c3cccc(S(C)(=O)=O)c3)cc2Cl)n(-c2cccnc2C(F)(F)F)n1` [Example 1385, 2-(5-(3-chloro-3′-(methylsulfonyl)biphenyl-4-yl)-1-(2-(trifluoromethyl)pyridin-3-yl)-1H-pyrazol-3-yl)propan-2-ol]: the EC50 is < 1 µM.
As to `Cc1cc(-c2cccc(S(C)(=O)=O)c2)ccc1-c1c(Cl)c(C(C)(C)O)nn1-c1c(Cl)cccc1Cl` [Example 1386, 2-(4-chloro-1-(2,6-dichlorophenyl)-5-(3-methyl-3′-(methylsulfonyl)biphenyl-4-yl)-1H-pyrazol-3-yl)propan-2-ol], the 50% effective concentration (EC50) is < 1 µM.
As for `CC(C)(O)c1nn(-c2cccnc2C(F)(F)F)c(-c2ccc(-c3cccc(S(C)(=O)=O)c3)cc2Cl)c1Cl` [Example 1387, 2-(4-chloro-5-(3-chloro-3′-(methylsulfonyl)biphenyl-4-yl)-1-(2-(trifluoromethyl)pyridin-3-yl)-1H-pyrazol-3-yl)propan-2-ol], the concentration for a half-maximal effect (EC50) is < 1 µM.
Consider `CC(C)CNC(=O)c1cc(-c2ccc(-c3cccc(S(C)(=O)=O)c3)cc2Cl)n(-c2cccnc2C(F)(F)F)n1` [Example 1388, 5-(3-chloro-3′-(methylsulfonyl)biphenyl-4-yl)-N-isobutyl-1-(2-(trifluoromethyl)pyridin-3-yl)-1H-pyrazole-3-carboxamide], for which the EC50 was < 1 µM.
For `CC(C)CNC(=O)c1cc(-c2ccc(-c3cccc(S(C)(=O)=O)c3)cc2Cl)n(-c2c(Cl)cccc2Cl)n1` [Example 1389, 5-(3-chloro-3′-(methylsulfonyl)biphenyl-4-yl)-1-(2,6-dichlorophenyl)-N-isobutyl-1H-pyrazole-3-carboxamide], the EC50 was < 1 µM.
On to `Cc1cc(-c2cccc(S(C)(=O)=O)c2)ccc1-c1cc(C(C)(C)O)nn1-c1cccnc1C(F)(F)F` [Example 1390, 2-(5-(3-methyl-3′-(methylsulfonyl)biphenyl-4-yl)-1-(2-(trifluoromethyl)pyridin-3-yl)-1H-pyrazol-3-yl)propan-2-ol], for which the concentration for a half-maximal effect (EC50) is < 1 µM.
Take `Cc1cc(-c2cccc(S(C)(=O)=O)c2)ccc1-c1c(Cl)c(C(C)(C)O)nn1-c1cccnc1C(F)(F)F` [Example 1391, 2-(4-chloro-5-(3-methyl-3′-(methylsulfonyl)biphenyl-4-yl)-1-(2-(trifluoromethyl)pyridin-3-yl)-1H-pyrazol-3-yl)propan-2-ol]: the EC50 was < 1 µM.
Turning to `Cn1c(-c2cccc(S(C)(=O)=O)c2)ccc1-c1cc(C(C)(C)O)nn1-c1c(Cl)cccc1Cl` [Example 1393, 2-(1-(2,6-dichlorophenyl)-5-(1-methyl-5-(3-(methylsulfonyl)phenyl)-1H-pyrrol-2-yl)-1H-pyrazole-3-yl)propan-2-ol], the concentration for a half-maximal effect (EC50) fell in the range of 1 to 10 µM.
For `CC(C)(O)c1cccc(-c2ccc(-c3cc(C(F)(F)F)nn3-c3c(Cl)cccc3Cl)c(Cl)c2)c1` [Example 1395, 2-(3′-chloro-4′-(1-(2,6-dichlorophenyl)-3-(trifluoromethyl)-1H-pyrazol-5-yl)biphenyl-3-yl)propan-2-ol], the half-maximal effective concentration (EC50) is < 1 µM.
Regarding `CS(=O)(=O)c1cccc(-c2ccc(-c3cc(C(=O)NCC(F)(F)F)nn3-c3c(Cl)cccc3Cl)c(Cl)c2)c1` [Example 1397, 5-(3-chloro-3′-(methylsulfonyl)biphenyl-4-yl)-1-(2,6-dichlorophenyl)-N-(2,2,2-trifluoroethyl)-1H-pyrazole-3-carboxamide], the EC50 is < 1 µM.
In the case of `Cc1cc(-c2cc(C(C)(C)O)nn2-c2c(Cl)cccc2Cl)ccc1-c1cccc(S(C)(=O)=O)c1` [Example 1398, 2-(1-(2,6-dichlorophenyl)-5-(2-methyl-3′-(methylsulfonyl)biphenyl-4-yl)-1H-pyrazol-3-yl)propan-2-ol], the EC50 was 1 to 10 µM.
For `CC(C)(O)c1cc(-c2ccc(-c3cccc(S(C)(=O)=O)c3)cc2)n(Cc2cccc(Cl)c2Cl)n1` [Example 1400, 2-(1-(2,3-dichlorobenzyl)-5-(3′-(methylsulfonyl)biphenyl-4-yl)-1H-pyrazol-3-yl)propan-2-ol] the value was < 1 µM; for `CS(=O)(=O)c1cccc(-c2ccc(-c3cc(C(=O)NCC(F)(F)F)nn3-c3cccnc3C(F)(F)F)c(Cl)c2)c1` [Example 1401, 5-(3-chloro-3′-(methylsulfonyl)biphenyl-4-yl)-N-(2,2,2-trifluoroethyl)-1-(2-(trifluoromethyl)pyridin-3-yl)-1H-pyrazole-3-carboxamide], < 1 µM.
For `CC(C)(O)c1cc(-c2ccc(-c3cccc(S(C)(=O)=O)c3)cc2Cl)n(Cc2cccc(Cl)c2Cl)n1` [Example 1402, 2-(5-(3-chloro-3′-(methylsulfonyl)biphenyl-4-yl)-1-(2,3-dichlorobenzyl)-1H-pyrazol-3-yl)propan-2-ol], the EC50 is < 1 µM.
For the molecule `CS(=O)(=O)c1cccc(-c2ccc(-c3c(Cl)c(C(=O)NCC(F)(F)F)nn3-c3cccnc3C(F)(F)F)c(Cl)c2)c1` [Example 1403, 4-chloro-5-(3-chloro-3′-(methylsulfonyl)biphenyl-4-yl)-N-(2,2,2-trifluoromethyl)-1-(2-(trifluoromethyl)pyridin-3-yl)-1H-pyrazole-3-carboxamide], the EC50 is < 1 µM.
For the molecule `Cc1cc(NCCN2CCCCC2)ccc1-c1cc(C(C)(C)O)nn1-c1c(Cl)cccc1Cl` [Example 1405, 2-(1-(2,6-dichlorophenyl)-5-(2-methyl-4-(2-(piperidin-1-yl)ethylamino)phenyl)-1H-pyrazol-3-yl)propan-2-ol], the EC50 is > 10 µM.
`CC(C)(O)c1nn(-c2ccc(-c3cccc(S(C)(=O)=O)c3)cc2Cl)c(-c2c(Cl)cccc2Cl)c1Cl` [Example 1414, 2-(4-chloro-1-(3-chloro-3′-(methylsulfonyl)biphenyl-4-yl)-5-(2,6-dichlorophenyl)-1H-pyrazol-3-yl)propan-2-ol]: the EC50 is < 1 µM.
Consider `Cc1cc(-n2nc(C(C)(C)O)cc2-c2c(Cl)cccc2Cl)ccc1-c1cccc(S(C)(=O)=O)c1` [Example 1417, 2-(5-(2,6-dichlorophenyl)-1-(2-methyl-3′-(methylsulfonyl)biphenyl-4-yl)-1H-pyrazol-3-yl)propan-2-ol], for which the EC50 fell in the range of 1 to 10 µM.
The result for `Cc1cc(-n2nc(C(C)(C)O)c(Cl)c2-c2c(Cl)cccc2Cl)ccc1-c1cccc(S(C)(=O)=O)c1` [Example 1419, 2-(4-chloro-5-(2,6-dichlorophenyl)-1-(2-methyl-3′-(methylsulfonyl)biphenyl-4-yl)-1H-pyrazol-3-yl)propan-2-ol] reads 1 to 10 µM; that for `Cc1cc(-c2cccc(S(C)(=O)=O)c2)ccc1-n1nc(C(C)(C)O)c(Cl)c1-c1ccccc1C(F)(F)F` [Example 1420, 2-(4-chloro-1-(3-methyl-3′-(methylsulfonyl)biphenyl-4-yl)-5-(2-(trifluoromethyl)phenyl)-1H-pyrazol-3-yl)propan-2-ol], < 1 µM; that for `CC(C)(O)c1nn(-c2ccc(-c3cccc(S(C)(=O)=O)c3)cc2Cl)c(-c2ccccc2C(F)(F)F)c1Cl` [Example 1421, 2-(4-chloro-1-(3-chloro-3′-(methylsulfonyl)biphenyl-4-yl)-5-(2-(trifluoromethyl)phenyl)-1H-pyrazol-3-yl)propan-2-ol], < 1 µM.
As to `Cc1cc(-c2cccc(S(C)(=O)=O)c2)ccc1-n1nc(C(C)(C)O)c(Cl)c1-c1ccccc1Cl` [Example 1422, 2-(4-chloro-5-(2-chlorophenyol)-1-(3-methyl-3′-(methylsulfonyl)biphenyl-4-yl)-1H-pyrazol-3-yl)propan-2-ol], the EC50 was < 1 µM.
